Data as given in PMC7284870, “Antimicrobial Peptides from Rat-Tailed Maggots of the Drone Fly Eristalis tenax Show Potent Activity against Multidrug-Resistant Gram-Negative Bacteria” (Microorganisms, 2020).
≈ marks a conversion by molar mass, not a printed value. Where two headings read alike, the source gives them in different places. No end group written: not given here.

Columns and labels:
[1] = tested on: A. baumannii ATCC19606; assay: Checkerboard assay EtDip with colistin; assay type: cell-based, Acinetobacter baumannii; conditions: CAMB, + 150 mM NaCl, + 1.25 mM CaCl2; FICindex ≤0.5 = synergy
Experimental: (§1) The interactions between pairs of compounds were analyzed using checkerboard assays in a 384-well microtiter plate with an assay volume of 20 µL. Immediately before the test runs, the bacterial cultures were diluted in CAMB to a density of 5 × 10^5 cells/mL. The two compounds for combinatorial testing were arrayed as 10-fold concentrated serial dilutions with respect to the final concentration, vertically for one compound and horizontally for the other, in the same 384-well microplate. Subsequently, we transferred 2-µL aliquots to new 384-well microtiter plates, and growth inhibition in each well was determined, as described for the MIC values above. Fractional inhibitory concentration (FIC) and FICindex values for each combination were calculated using the following formulae, where a
(§2) FICindex ≤0.5 indicates synergy and a FICindex >4 indicates antagonism.
(§3) FIC for compound A = MIC of compound A in combination/MIC of compound A
(§4) FIC for compound B = MIC of compound B in combination/MIC of compound B

[2] = tested on: reference strains; assay: MIC, several reference strains; assay type: cell-based; conditions: reference strains of Table 2
Experimental: (§5) The strains that were used in this study (Table 2 and Table S1) were cultivated at 37 °C in cation-adjusted Mueller–Hinton broth (CAMB) in Erlenmeyer flasks, or on the same medium with agar in Petri dishes. Exceptionally, Mycobacterium smegmatis was cultivated at 37 °C in brain heart infusion (BHI) medium that was supplemented with 1% Tween-80 in Erlenmeyer flasks, or on the same medium lacking detergent but with agar in Petri dishes. Strains listed with Robert Koch Institute (RKI) strain numbers are clinical isolates from the RKI strain collection originating from hospitalized patients in Germany. The remaining strains originated from the Sanofi strain collection and they were originally purchased from the American Type Culture Collection or the German Collection of Microorganisms and Cell Cultures. Meropenem/colistin-resistant strains were maintained, as described above, with the appropriate antibiotic added at levels below the minimal inhibitory concentration (MIC).
(§6) The MIC values were determined in 384-well microtiter plates with an assay volume of 20 µL. […] The growth of M. smegmatis was measured using the BacTiter-Glo luminescence test system (Promega, Madison, WI, USA). The growth of the other species was determined by visual inspection of the microtiter plate and turbidimetry based on the optical density at 600 nm (OD600). […]

[3] = tested on: human erythrocytes; assay: Hemolysis of human erythrocytes; conditions: hRBC in PBS, 3 h, 37 °C, A540; highest tested 1024 µg/mL
Experimental: Fresh citrated stabilized human whole blood was centrifuged at 500× g for 5 min. and the cell sediment was washed three times with phosphate buffered saline (PBS) before resuspending in PBS (50-fold the initial sample volume) to generate the human red blood cell (hRBC) suspension. The peptides were dissolved in sterile water at a concentration of 10.24 mg/mL and a dilution series was prepared in a 384-well microtiter plate, as above, to achieve the concentration range 10,240–0.3125 µg/mL in a volume of 50 µL. Triton X-100 (positive control) was diluted in sterile water to cover the concentration range 20–0.02%. We transferred 5-µL aliquots to new 384-well microtiter plates using the CyBio-Well 384-channel automated pipettor and added 45 µL of the hRBC suspension while using the Viafill reagent dispenser to achieve the final peptide concentration range 1024–0.031 µg/mL. After incubation at 37 °C. for 3 h, the plate was centrifuged and 20 μL of the supernatant from each well was transferred to a new microtiter plate. The quantity of released hemoglobin was determined by measuring the absorbance at 540 nm using a Lumistar plate reader (BMG Labtech, Ortenberg, Germany). The percent hemolysis was calculated by comparing to a control without peptide (no hemolysis) and a control with 2% Triton X-100 (100% hemolysis).

[4] = tested on: E. coli ATCC25922; assay: Checkerboard assay EtDip with colistin; assay type: cell-based, Escherichia coli; conditions: CAMB, + 150 mM NaCl, + 1.25 mM CaCl2; FICindex ≤0.5 = synergy
Experimental: as §1, §2, §3, §4

[5] = tested on: Escherichia coli clinical isolates (26); assay: MIC, clinical isolates; assay type: cell-based
Experimental: as §5
(§7) The MIC values were determined in 384-well microtiter plates with an assay volume of 20 µL. Immediately before each assay, the cultures of test organisms (bacteria grown for 18 h, Candida albicans and M. smegmatis grown for 48 h) were diluted with the appropriate medium to a density of 1 × 10^6 cells/mL (C. albicans), 1 × 10^5 cells/mL (M. smegmatis) or 5 × 10^5 cells per mL (other species). […] We transferred 2-µL aliquots from this dilution series to new 384-well microtiter plates while using a CyBio-Well 384-channel automated pipettor (Analytic Jena, Jena, Germany) and added 18 µL of the diluted suspension of each test species using a Viafill reagent dispenser (Integra), thus reducing the final peptide concentration 10-fold to the range 1024–0.03125 µg/mL. […] The growth of M. smegmatis was measured using the BacTiter-Glo luminescence test system (Promega, Madison, WI, USA). The growth of the other species was determined by visual inspection of the microtiter plate and turbidimetry based on the optical density at 600 nm (OD600). The MIC was defined as the peptide concentration at which no bacterial growth was observed. We supplemented the test medium with either 150 mM NaCl or 1.25 mM CaCl2 to represent monovalent and divalent cations to simulate physiological conditions.

[6] = tested on: Klebsiella pneumoniae clinical isolates (21); assay: MIC, clinical isolates; assay type: cell-based
Experimental: as §5, §7

[7] = tested on: Seratia fonticola clinical isolate (1); assay: MIC, clinical isolates; assay type: cell-based, Serratia fonticola; conditions: Table S1, RKI 517/16
Experimental: as §5, §6

With “QFNMQGGGSPRQGFDVNANARFPIWQSQNARNSVHGTASYAQHLGGPYGNSRPNFGGGLQFT [EtDip, diptericin-like peptide of Eristalis tenax]” the “interaction with colistin (FICindex)” value [1] was “Synergistic interactions”, the “activity against the test strains” value [2] was “no activity” and the minimal hemolytic concentration [3] was over 1024 µg/mL. The “interaction with colistin (FICindex)” value [4] was “Synergistic interactions”.
With C[C@@H](O)[C@H]1C(=O)N2C(C(=O)O)=C(S[C@@H]3CN[C@H](C(=O)N(C)C)C3)[C@H](C)[C@H]12 [MEM, meropenem] the MIC ([5]; Table S1, RKI 75/15) was over 64 µg/mL, the MIC ([5]; Table S1, RKI 95/15) was at most 0.5 µg/mL and the MIC ([5]; Table S1, RKI 97/15) was at most 0.5 µg/mL. The MIC ([5]; Table S1, RKI 314/16) was at most 0.5 µg/mL, the MIC ([5]; Table S1, RKI 317/16) was at most 0.5 µg/mL and the MIC ([5]; Table S1, RKI 330/16) was at most 0.5 µg/mL. The MIC ([5]; Table S1, RKI 443/16) was 4 µg/mL (≈ 10.4 µM), the MIC ([5]; Table S1, RKI 462/16) was at most 0.5 µg/mL and the MIC ([5]; Table S1, RKI 513/16) was at most 0.5 µg/mL. For the same molecule, the MIC ([5]; Table S1, RKI 514/16) was at most 0.5 µg/mL, the MIC ([5]; Table S1, RKI 515/16) was at most 0.5 µg/mL and the MIC ([5]; Table S1, RKI 521/16) was at most 0.5 µg/mL. For the same molecule, the MIC ([5]; Table S1, RKI 524/16) was at most 0.5 µg/mL, the MIC ([5]; Table S1, RKI 525/16) was at most 0.5 µg/mL and the MIC ([5]; Table S1, RKI 581/16) was at most 0.5 µg/mL. The MIC ([5]; Table S1, RKI 582/16) was at most 0.5 µg/mL, the MIC ([5]; Table S1, RKI 583/16) was at most 0.5 µg/mL and the MIC ([5]; Table S1, RKI 590/16) was at most 0.5 µg/mL. For the same molecule, the MIC ([5]; Table S1, RKI 592/16) was at most 0.5 µg/mL, the MIC ([5]; Table S1, RKI 593/16) was at most 0.5 µg/mL and the MIC ([5]; Table S1, RKI 602/16) was at most 0.5 µg/mL. The MIC ([5]; Table S1, RKI 607/16) was 8 µg/mL (≈ 20.9 µM), the MIC ([5]; Table S1, RKI 867/14) was 8 µg/mL (≈ 20.9 µM) and the MIC ([5]; Table S1, RKI 1023/14) was at most 0.5 µg/mL. It also gave an MIC ([6]; Klebsiella pneumoniae, Table S1, RKI 600/16, read-out: MIC) of at most 0.5 µg/mL, an MIC ([6]; Table S1, RKI 19/16) of at most 0.5 µg/mL and an MIC ([6]; Table S1, RKI 80/15) of at most 0.5 µg/mL. For the same molecule, the MIC ([6]; Table S1, RKI 94/15) was at most 0.5 µg/mL, the MIC ([6]; Table S1, RKI 95/16) was at most 0.5 µg/mL and the MIC ([6]; Table S1, RKI 107/15) was 1 µg/mL (≈ 2.61 µM). It also gave an MIC ([6]; Table S1, RKI 138/16) of at most 0.5 µg/mL, an MIC ([6]; Table S1, RKI 164/16) of over 64 µg/mL and an MIC ([6]; Table S1, RKI 229/15) of 16 µg/mL (≈ 41.7 µM). The MIC ([6]; Table S1, RKI 320/16) was at most 0.5 µg/mL, the MIC ([6]; Table S1, RKI 328/16) was 64 µg/mL (≈ 167 µM) and the MIC ([6]; Table S1, RKI 373/16-1) was at most 0.5 µg/mL. For the same molecule, the MIC ([6]; Table S1, RKI 393/16) was at most 0.5 µg/mL, the MIC ([6]; Table S1, RKI 461/16) was at most 0.5 µg/mL and the MIC ([6]; Table S1, RKI 503/15) was 32 µg/mL (≈ 83.4 µM). It also gave an MIC ([6]; Table S1, RKI 544/13) of over 64 µg/mL, an MIC ([6]; Table S1, RKI 577/15) of at most 0.5 µg/mL and an MIC ([6]; Table S1, RKI 908/15) of 32 µg/mL (≈ 83.4 µM). For the same molecule, the MIC [7] was 32 µg/mL (≈ 83.4 µM).
In the case of “GWLRDFGKRIERTGQNIRDATIQTIGIAQEAANVAATLK-NH2 [EtCec2-NH2]”, the minimal hemolytic concentration [3] is reported as 512 µg/mL.
